According to PubChem BioAssay AID248 (DTP/NCI, 2004):
“And” between values parts separate entries of the source, which are not always exact repeats. Equal values may be shown once. Inconclusive results and toxic doses are left out. No stated cut-off is given here; in the data, active means T/C of 150% or more; inactive means T/C below 125%.

Test system: L1210 leukemia ip in BDF1 mice, survival T/C
Assay: NCI In Vivo Anticancer Drug Screen. Data for tumor model L1210 Leukemia (intraperitoneal) in B6D2F1 (BDF1) mice
Conditions: endpoint: mean survival time, higher = longer survival
In short: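 Read-out is survival time, reported as the treated-group measurement over the vehicle-control measurement.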

[1] = dose: 12.5 mg/kg/injection, schedule: Q01DX009 (ip), vehicle: Klucel (hydroxypropylcellulose) (HPC)
[2] = dose: 25.0 mg/kg/injection, schedule: Q04DX003 (ip), vehicle: Klucel (hydroxypropylcellulose) (HPC)
[3] = dose: 100.0 mg/kg/injection, schedule: Q01DX001 (ip), vehicle: saline
[4] = dose: 200.0 mg/kg/injection, schedule: Q01DX001 (ip), vehicle: saline
[5] = dose: 400.0 mg/kg/injection, schedule: Q01DX001 (ip), vehicle: saline
[6] = dose: 75.0 mg/kg/injection, schedule: Q01DX001 (ip), vehicle: saline
[7] = dose: 100.0 mg/kg/injection, schedule: Q04DX003 (ip), vehicle: Klucel (hydroxypropylcellulose) (HPC)
[8] = dose: 200.0 mg/kg/injection, schedule: Q04DX003 (ip), vehicle: Klucel (hydroxypropylcellulose) (HPC)
[9] = dose: 400.0 mg/kg/injection, schedule: Q04DX003 (ip), vehicle: Klucel (hydroxypropylcellulose) (HPC)
[10] = dose: 25.0 mg/kg/injection, schedule: Q01DX009 (ip), vehicle: Klucel (hydroxypropylcellulose) (HPC)
[11] = dose: 50.0 mg/kg/injection, schedule: Q01DX009 (ip), vehicle: Klucel (hydroxypropylcellulose) (HPC)
[12] = dose: 50.0 mg/kg/injection, schedule: Q01DX001 (ip), vehicle: saline
[13] = dose: 100.0 mg/kg/injection, schedule: Q01DX001 (ip), vehicle: carboxymethylcellulose (CMC)
[14] = dose: 200.0 mg/kg/injection, schedule: Q01DX001 (ip), vehicle: carboxymethylcellulose (CMC)
[15] = dose: 400.0 mg/kg/injection, schedule: Q01DX001 (ip), vehicle: carboxymethylcellulose (CMC)
[16] = dose: 100.0 mg/kg/injection, schedule: Q01DX009 (ip), vehicle: Klucel (hydroxypropylcellulose) (HPC)

Measured: T/C

CC[NH-].CC[NH-].[Cl][Pt+2][Cl]
inactive: dose: 0.75 mg/kg/injection, schedule: Q01DX009 (ip), vehicle: other 106 % of control | dose: 1.5 mg/kg/injection, schedule: Q01DX001 (ip), vehicle: other 101 % of control | dose: 1.5 mg/kg/injection, schedule: Q01DX009 (ip), vehicle: other 118 % of control | dose: 2.6 mg/kg/injection, schedule: Q01DX009 (ip), vehicle: Klucel (hydroxypropylcellulose) (HPC) 108 % of control and 114 % of control | dose: 3.0 mg/kg/injection, schedule: Q01DX001 (ip), vehicle: other 106 % of control | dose: 3.0 mg/kg/injection, schedule: Q01DX009 (ip), vehicle: other 124 % of control | dose: 4.0 mg/kg/injection, schedule: Q01DX009 (ip), vehicle: Klucel (hydroxypropylcellulose) (HPC) 108 % of control and 119 % of control | dose: 5.0 mg/kg/injection, schedule: Q04DX003 (ip), vehicle: Klucel (hydroxypropylcellulose) (HPC) 107 % of control | dose: 6.0 mg/kg/injection, schedule: Q01DX009 (ip), vehicle: Klucel (hydroxypropylcellulose) (HPC) 115 % of control and 119 % of control | dose: 8.0 mg/kg/injection, schedule: Q04DX003 (ip), vehicle: Klucel (hydroxypropylcellulose) (HPC) 110 % of control | dose: 9.0 mg/kg/injection, schedule: Q01DX009 (ip), vehicle: Klucel (hydroxypropylcellulose) (HPC) 107 % of control | dose: 12.0 mg/kg/injection, schedule: Q01DX001 (ip), vehicle: other 121 % of control | [1] 119 % of control | dose: 18.0 mg/kg/injection, schedule: Q04DX003 (ip), vehicle: Klucel (hydroxypropylcellulose) (HPC) 117 % of control | [2] 90 % of control

CCOP(=O)(OCC)C([O][Sb]([O]CC(C)Cl)[O]CC(C)Cl)c1ccc(OC)cc1 (configuration not stated)
inactive: dose: 25.0 mg/kg/injection, schedule: Q04DX003 (ip), vehicle: alcohol 101 % of control | dose: 50.0 mg/kg/injection, schedule: Q04DX003 (ip), vehicle: alcohol 97 % of control | dose: 100.0 mg/kg/injection, schedule: Q04DX003 (ip), vehicle: alcohol 103 % of control and 113 % of control

Cn1c(Cl)nc2c(Cl)nc(Cl)nc21
inactive: dose: 6.25 mg/kg/injection, schedule: Q01DX009 (ip), vehicle: Klucel (hydroxypropylcellulose) (HPC) 102 % of control | [1] 102 % of control | [3] 92 % of control | [4] 94 % of control | [5] 94 % of control

Cc1ccc(S(=O)(=O)N(C)CCC(C)C(=O)NN(C)c2ccccc2)cc1 (configuration not stated)
inactive: [6] 95 % of control | dose: 150.0 mg/kg/injection, schedule: Q01DX001 (ip), vehicle: saline 89 % of control | dose: 300.0 mg/kg/injection, schedule: Q01DX001 (ip), vehicle: saline 90 % of control

CCOCC(O)CO (configuration not stated)
inactive: [3] 110 % of control | [4] 98 % of control | [5] 96 % of control

N/C(=N\Nc1ccccc1)N[N+](=O)[O-]
inactive: dose: 175.0 mg/kg/injection, schedule: Q01DX001 (ip), vehicle: acetone 100 % of control | dose: 265.0 mg/kg/injection, schedule: Q01DX001 (ip), vehicle: acetone 96 % of control | dose: 400.0 mg/kg/injection, schedule: Q01DX001 (ip), vehicle: acetone 94 % of control | dose: 600.0 mg/kg/injection, schedule: Q01DX001 (ip), vehicle: acetone 104 % of control

Cc1cc(C)c(NC(=S)NC(=O)c2ccco2)c(C)c1
inactive: dose: 100.0 mg/kg/injection, schedule: Q01DX009 (ip), vehicle: saline with Tween-80 97 % of control | [7] 98 % of control | dose: 200.0 mg/kg/injection, schedule: Q01DX009 (ip), vehicle: saline with Tween-80 93 % of control | [8] 96 % of control | dose: 400.0 mg/kg/injection, schedule: Q01DX009 (ip), vehicle: saline with Tween-80 95 % of control | [9] 102 % of control

CCOC(=O)c1c(-c2ccc([N+](=O)[O-])cc2)cn(-c2ccccc2)c1C
inactive: dose: 100.0 mg/kg/injection, schedule: Q04DX002 (ip), vehicle: Klucel (hydroxypropylcellulose) (HPC) 91 % of control | dose: 200.0 mg/kg/injection, schedule: Q04DX002 (ip), vehicle: Klucel (hydroxypropylcellulose) (HPC) 97 % of control | dose: 400.0 mg/kg/injection, schedule: Q04DX002 (ip), vehicle: Klucel (hydroxypropylcellulose) (HPC) 87 % of control

O=S(=O)(OCC1CO1)c1ccc(F)cc1 (configuration not stated)
inactive: dose: 100.0 mg/kg/injection, schedule: Q01DX007 (ip), vehicle: Klucel (hydroxypropylcellulose) (HPC) 103 % of control | [7] 95 % of control | dose: 200.0 mg/kg/injection, schedule: Q01DX007 (ip), vehicle: Klucel (hydroxypropylcellulose) (HPC) 114 % of control | [8] 104 % of control | dose: 400.0 mg/kg/injection, schedule: Q01DX007 (ip), vehicle: Klucel (hydroxypropylcellulose) (HPC) 103 % of control | [9] 98 % of control

CCOC(=O)NC(CC)NC(=O)OCC
inactive: [3] 101 % of control | [4] 103 % of control | [5] 97 % of control

O=C(COc1ccc(Cl)cc1)Nc1cccnc1
inactive: [10] 100 % of control | [2] 100 % of control | [11] 92 % of control | dose: 50.0 mg/kg/injection, schedule: Q04DX003 (ip), vehicle: Klucel (hydroxypropylcellulose) (HPC) 94 % of control | [7] 103 % of control

C[N+](C)(C)CCS(=O)(=O)c1ccc(Cl)cc1
inactive: dose: 100.0 mg/kg/injection, schedule: Q04DX002 (ip), vehicle: saline 90 % of control

COc1cc(CN)cc(OC)c1OC
inactive: [12] 100 % of control | [3] 96 % of control | [4] 96 % of control | [5] 100 % of control

CCC1(Cc2ccccc2)C(=O)NC(=S)N(C)C1=O (configuration not stated)
inactive: [6] 106 % of control

CN(C)C=Nc1c2c(C#N)cn(C3OC(CO)C(O)C3O)c2nc[n+]1[O-] (configuration not stated)
inactive: dose: 12.5 mg/kg/injection, schedule: Q01DX005 (ip), vehicle: saline 97 % of control | dose: 12.5 mg/kg/injection, schedule: Q01DX009 (ip), vehicle: saline 104 % of control | dose: 25.0 mg/kg/injection, schedule: Q01DX005 (ip), vehicle: saline 102 % of control | dose: 25.0 mg/kg/injection, schedule: Q01DX009 (ip), vehicle: saline 104 % of control | dose: 50.0 mg/kg/injection, schedule: Q01DX005 (ip), vehicle: saline 105 % of control | dose: 50.0 mg/kg/injection, schedule: Q01DX009 (ip), vehicle: saline 109 % of control

Cc1[nH]c2ccccc2c1C1CCC(=O)C1 (configuration not stated)
inactive: [13] 100 % of control | [14] 89 % of control | [15] 93 % of control

COc1ccccc1C(=O)C=C(C(F)(F)F)C(F)(F)F
inactive: dose: 100.0 mg/kg/injection, schedule: Q04DX003 (ip), vehicle: saline with Tween-80 95 % of control | dose: 200.0 mg/kg/injection, schedule: Q04DX003 (ip), vehicle: saline with Tween-80 97 % of control

N#CCC(=O)N1CCCC1
inactive: [12] 95 % of control | [3] 104 % of control | [4] 98 % of control | [5] 95 % of control

OC1CNCCc2ccccc21 (configuration not stated)
inactive: [10] 102 % of control | [11] 103 % of control | [16] 94 % of control | [7] 92 % of control | [8] 88 % of control

CCOC(=O)C(C(=O)Nc1ccccc1)C(=O)OCC
inactive: [16] 99 % of control | [7] 90 % of control | dose: 200.0 mg/kg/injection, schedule: Q01DX009 (ip), vehicle: Klucel (hydroxypropylcellulose) (HPC) 100 % of control | [8] 93 % of control | dose: 400.0 mg/kg/injection, schedule: Q01DX009 (ip), vehicle: Klucel (hydroxypropylcellulose) (HPC) 105 % of control | [9] 98 % of control

C1COC(CNCC2CCCO2)C1 (configuration not stated)
inactive: [12] 109 % of control | [3] 101 % of control | [4] 103 % of control

CN1C(CSCC(F)(F)F)Nc2cc(Cl)c(S(N)(=O)=O)cc2S1(=O)=O (configuration not stated)
inactive: [13] 108 % of control | [14] 106 % of control | [15] 103 % of control

CCOC(=O)COc1ccc(Cl)cc1C(=O)OCC
inactive: dose: 100.0 mg/kg/injection, schedule: Q04DX002 (sc), vehicle: olive oil, sesame oil, peanut oil 105 % of control | dose: 200.0 mg/kg/injection, schedule: Q04DX002 (sc), vehicle: olive oil, sesame oil, peanut oil 118 % of control | dose: 400.0 mg/kg/injection, schedule: Q04DX002 (sc), vehicle: olive oil, sesame oil, peanut oil 111 % of control
